Values of other authors, collected in patent US10863763B2, “Prebiotic compositions and uses thereof” (priority 2013, dated 2020).
Where two headings read alike, the source gives them in different places.

Assays:
[1] = in vivo
[2] = meta-analysis, 10 trials, n=489; 95% CI 1.8, 0.4
[3] = 8 g/d for 12 months; adolescents, n=97; placebo 1.2
[4] = 21 g/d, 3 months; BMI >25 kg/m2, n=48; relative to maltodextrin control
[5] = 16 g/d × 2 wk v maltodextrin placebo
[6] = system: anorexic gut peptides (GLP-1 & PYY); details: after 2 weeks of supplementation, relative to maltodextrin placebo
[7] = not given; remark: listed apart in the source
[8] = not given; remark: listed apart in the source
[9] = not given; remark: listed apart in the source
[10] = system: lactobacilli and bifidobacteria in the faeces; details: 4.5 g/d for 21 d; healthy and constipated adults
[11] = in vivo; remark: listed apart in the source
[12] = 50% of patty fat replaced, v full fat patty
[13] = enriched cereal bars, 2 day test period
[14] = 4 h 15 min after administration; 58 normal to slightly overweight women
[15] = heating at high temperatures for 60 min
[16] = not given; remark: listed apart in the source
[17] = 11 RCT, overweight and obese adults
[18] = low pH alone or Maillard reaction conditions

[Cr] [chromium]
mean difference in weight in favour of chromium over placebo (11 RCT, n=866, 95% CI −0.96, −0.03, 137 to 1000 μg/d): -0.5 kg | BMI or waist to hip circumference [17]: no effect | percentage body fat [17]: modest reduction | adverse effects in participants (disappeared on withdrawal, reappeared on reintroduction): watery stools, vertigo, weakness, nausea, vomiting, dizziness and headaches | adverse effects reported by other authors [1]: constipation, decreased appetite and urticaria

chromium picolinate
weighted mean difference in weight in favour of chromium picolinate over placebo [2]: 1.1 kg

fructooligosaccharides [FOS]
increase in BMI over 12 months [3]: 0.7 kg/m2 | weight change [4]: −1.03 (SD 0.43) kg | fullness at dinner [5]: increased | prospective food intake at dinner [5]: decreased | reduction in total energy intake over a 24 hour test period [5]: 5% | satiety at breakfast and dinner [5]: significantly increased | release of anorexic gut peptides (GLP-1 & PYY) in response to a test meal [6]: minor transient increases | prebiotic activity ([7]; heating at low pH): reduced | prebiotic activity [7, 18]: stable | detrimental effects on mineral absorption, lipid metabolism or glycaemic control ([8]; in vivo): failed to find evidence | single dose at which GI adverse effects (bloating, flatulence and diarrhoea) become evident ([8]; in vivo): > 20 g/day | treatment-related toxicity, genotoxicity or carcinogenicity ([8]; in vivo): no evidence

glucomannan
weight loss ([9]; 9 RCT, n=379, trials averaging 5.2 weeks, 95% CI −1.53, −0.05, 1.24 to 15.1 g/d): 0.79 kg | weight change in the 3 studies supplying glucomannan in biscuits or granola bars ([9]; biscuits or granola bars): failed to report any significant weight change | weight loss in obese subjects (mean) ([9]; obese subjects): −1.30 (−1.69, −0.91) kg | SOFA fatty acid concentrations in the faeces [10]: increased | proportion of lactobacilli and bifidobacteria in the faeces [10]: increased | safety in toxicological and genotoxicity studies [11]: safe

inulin
measures of satiety [12]: no effect | total fat intake and total energy intake on the test day ([12]; 33 males): lower | energy intake or any of the 6 subjective ratings of hunger between treatments [13]: no difference | decrease in energy intake at an ad libitum lunch [14]: 89.84 kcal | prebiotic activity ([7]; heating at low pH): reduced | prebiotic activity [7, 18]: stable | degradation to di-D-fructose dianhydrides [15]: substantial degradation | treatment-related toxicity, genotoxicity or carcinogenicity ([8]; animal studies and clinical trial reports): no evidence | detrimental effects on mineral absorption, lipid metabolism or glycaemic control ([8]; in vivo): failed to find evidence

short chain FOS [scFOS]
measures of satiety at breakfast or lunch and food intake during an ad libitum lunch ([16]; two separate doses of 0, 5 and 8 g): failed to alter | energy intake over the remainder of the day ([16]; women consuming the 16 g dose): significantly lower

β-glucan [reference compound]
energy intake or any of the 6 subjective ratings of hunger between treatments [13]: no difference
